Measurements taken from patent US10342796B2, “Acrylanilide derivative, preparation method, and applications thereof in pharmacy” (Ancureall Pharmaceutical (Shanghai) Co., Ltd., priority 2015, dated 2019).
Read-outs that look alike come from different tables or passages of the source.

Key:
[1] = system: H1975 (EGFR L858R/T790M); experiment: Growth inhibition GI50 in vitro (CCK8/MTT, 72 h); type: cell-based, human; settings: Homo sapiens, NCI-H1975
[2] = system: HCC827 (EGFR dE746-A750); experiment: Growth inhibition GI50 in vitro (CCK8/MTT, 72 h); type: cell-based, human; settings: Homo sapiens, HCC827; EGFR mutant cell line; range of GI50; read-out: GI50 HCC827
[3] = system: PC-9 (EGFR dE746-A750); experiment: Growth inhibition GI50 in vitro (CCK8/MTT, 72 h); type: cell-based, human; settings: Homo sapiens
[4] = system: PC-9ER (EGFR delE746-A750/T790M); experiment: Growth inhibition GI50 in vitro (CCK8/MTT, 72 h); type: cell-based, human; settings: Homo sapiens, PC-9/ER; EGFR mutant cell line; range of GI50; read-out: GI50 PC9ER
[5] = system: AU565 (Her2 amp); experiment: Growth inhibition GI50 in vitro (CCK8/MTT, 72 h); type: cell-based, human; settings: Homo sapiens, AU565; HER2 positive cell line; range of GI50; read-out: GI50 AU-565
[6] = system: A431 (EGFR WT, amplification and high expression); experiment: Growth inhibition GI50 in vitro (CCK8/MTT, 72 h); type: cell-based, human; settings: Homo sapiens, A-431; EGFR wild type cell line; range of GI50; read-out: GI50 A431
[7] = system: H460 (EGFR wt, Kras G61H); experiment: Growth inhibition GI50 in vitro (CCK8/MTT, 72 h); type: cell-based, human; settings: Homo sapiens, NCI-H460; EGFR wild type cell line; range of GI50; read-out: GI50 H460
[8] = system: A549 (EGFR WT); experiment: Growth inhibition GI50 in vitro (CCK8/MTT, 72 h); type: cell-based, human; settings: Homo sapiens, A549
[9] = system: H1299 (EGFR wt, Nras Q61K); experiment: Growth inhibition GI50 in vitro (CCK8/MTT, 72 h); type: cell-based, human; settings: Homo sapiens, NCI-H1299; EGFR wild type cell line; range of GI50; read-out: GI50 H1299
[10] = system: SK-BR-3 (Her2 amp); experiment: Growth inhibition GI50 in vitro (CCK8/MTT, 72 h); type: cell-based, human; settings: Homo sapiens, SK-BR-3; HER2 positive cell line; range of GI50; read-out: GI50 SK-BR-3
[11] = system: N87 (HER2 Amp); experiment: Growth inhibition GI50 in vitro (CCK8/MTT, 72 h); type: cell-based, human; settings: Homo sapiens
[12] = system: PC-9 tumor cells; experiment: In vivo tumor growth inhibition, xenograft; design: species or system Bab/c nude mice; settings: Mus musculus, po, 456 h; 25 mg/kg intragastric once daily, day 19; read-out: TGI (%) PC-9
Source text: (§1) Tumor xenograft models of immunodeficient mice are an effective tool to test the antitumor activity of the compound in vivo. Generally, the effectiveness of human tumor cell xenograft is positively correlated with the clinical treatment of human tumor. Bab/c immunodeficient mouse is one of the most commonly used xenograft animals with human tumor cells. In order to test whether the present compounds can inhibit the in vivo growth of the tumor cells expressing EGFR mutantion or HER2/ErbB2 overexpression, H1975, PC-9 and NCI-N87 cell lines were used in the experiments. When H1975, PC-9 and NCI-N87 cells were in growth logarithmic phase, they were digested with pancreatin. An appropriate amount of 1×RPMI1640 culture medium (serum-free) was added to stop digestion. The cells were collected to a 50 ml centrifuge tube (Corning), and centrifuged at 1700 rm for 3 min. The supernatant was discard, then the cells were suspended with 1×RPMI1640 culture medium and count the number. […] cells/mL was prepared and then placed on ice. 5˜10×10^6 (0.2 ml) cells were inoculated subcutaneously on the right side of the back of 6˜8 week old female Bab/c nude mice (about 20 g in weight). When the tumor average volume growed to 100˜200 mm^3, the mice were randomly divide into groups (3-6 mice per group), and marked by ear pierced tags and weighted. The test compounds and the reference compound (with a purity over 99% and individual impurity not higher than 0.2%) were formulated to emulsion suspension with CM (30% polyethylene glycol 400, 0.5% Tween-80 and 2.5% propylene glycol) respectively. Intragastric administration was continued once daily at a dosage of 25 mg/kg (0.1 ml/10 g mouse). The tumor was measured 3 times per week. When the average volume of the tumor in CM control group was up to 1500 mm^3 or after administration for 30 days, the experiment was ended.
(§2) The volume of tumor (V) was calculated as V=½*a*b^2 (a represents length of tumors, b represents width of tumors). Tumor growth inhibition (TGI) was calculated as: TGI (%)=100−(VT−VT0)/(VC−VC0)*100%; where VT0 and VT are the tumor volumes of the beginning and finish days of dosed groups; and VC0 and VC are the tumor volumes of the beginning and finish days for the control group, respectively.

[13] = system: H1975 tumor cells; experiment: In vivo tumor growth inhibition, xenograft; design: species or system Bab/c nude mice; settings: Mus musculus, NCI-H1975, po, 456 h; 25 mg/kg intragastric once daily, day 19; read-out: TGI (%) H1975
Source text: as §1, §2

[14] = system: NCI-H1781 (HER2 exon 20 G776VC mutation); experiment: Growth inhibition GI50 in vitro (CCK8/MTT, 72 h); type: cell-based; settings: Homo sapiens, NCI-H1781; Table 16; 1000 nM to 0.03 nM serial dilution; read-out: GI50 H1781 (HER2 G776VC)
Experimental: Human lung adenocarcinoma cell line Calu-3 (ATCC) was cultured with 1×MEM complete medium (10% FBS, 1% double-antibiotics, 1% NEAA (Gibco), 2 mM glutamine and 1 mM of sodium pyruvate). Human breast cancer cell line SK-BR-3 was cultured with McCOY'S5A complete medium (10% FBS). Human colon cancer cell line SNU1040 (HER2 V777M positive) (ATCC) and human bronchoalveolar adenocarcinoma cell line NCI-H1781 (expressing HER2 exon 20 G776VC mutation) (ATCC) were cultured with 1×RPMI1640 complete medium (10% FBS), respectively.
(§3) Adherent cells were digested with 0.25% pancreatin-EDTA (Gibco). The suspension cells were collected by centrifugation. The supernatant was discard and the cell pellet was resuspended and counted. Different cell concentrations (5˜10×10^4 cells/mL) were prepared according to the growth cycle of each cell line and then seeded on a 96-well plate (Corning), 100 μL/well. The cells were incubated over night at 37° C., 5% CO2. The compounds were added to the cells on the second day with 2 wells in parallel. The final concentration of organic solvent shall not exceed 1%. The cells were continually incubated for 72 h, and then subjected to MTT assay.
(§4) The present compounds and the reference compounds were dissolved with DMSO (Sigma), respectively. […] The storage concentration of compounds was 10 mM and kept at −20° C. They were diluted by 2 times or 10 times with serial dilution before using.
(§5) Dojindo CCK8 reagent kit was used as MTT assay. […] FC meter was used as microplate reader.
(§6) Adherent cell culture medium was discard and immediately replaced with fresh prepared medium which contains 10% CCK8 reagent (100 μL/well). For the suspension cells, CCK8 was directly added to 10% of the final concentration. The cells were continually incubated for 1˜4 h. When the color of control wells turned to dark yellow, the absorption value was measured at OD450 nm. The cell growth rate was calculated according to the following formula: cell growth rate (%)=100*(T−T0)/(C−T0), T=optical density of drug treatment cell well—optical density of blank control well; T0=optical density of cell well before drug treatment—optical density of blank control well; C=optical density of cell well of solvent control group—optical density of blank control well. The concentration value of 50% inhibition of cell growth (GI50) was calculated. The experiment was independently repeated 1˜3 times, and subject to biological statistical analysis.
Furthermore, the present compounds (99, 136, 205, 211, 212, 213, 216, 229, 230, 231, 232, 233 and 236) were selected to carry out growth inhibition test for HER2/ERBB2 gene amplified or high expressed or mutant tumor cells. Afatinib and AZD9291 were used for references as second- and third-generation inhibitors of EGFR.
Each compound started at 1000 nM as an initial concentration and was diluted by 2 times with serial dilution to 0.03 nM. The GI50 value of each compound was calculated according to Test Example 1.3.

[15] = system: H292 (EGFR WT); experiment: Growth inhibition GI50 in vitro (CCK8/MTT, 72 h); type: cell-based; settings: Homo sapiens, NCI-H292; Table 15; 1000 nM to 0.03 nM serial dilution; read-out: GI50 H292 (EGFR WT)
Source text: EGFR wild type cell lines: human epidermal cancer cell line A431 (EGFR WT, amplification and high expression, from Shanghai Cell Bank of Chinese Academy of Sciences and ATCC), NSCLC cell lines NCI-H460 (EGFR WT, Kras G61H and PI3KCA E545K mutants, ATCC) and NCI-H1299 (EGFR WT, ATCC), melanoma cell line A375 (EGFR WT and BRAF V600E mutant, from Shanghai Cell Bank of Chinese Academy of Sciences, ATCC), human lung cancer cell line NCI-H292 (EGFR WT, from human lung mucoepidermoid carcinoma/lymphatic metastasis, purchased from Shanghai Cell Bank of Chinese Academy of Sciences) were cultured with 1×RPMI1640 complete medium which was supplement with 10% FBS. NSCLC cell line A549 (EGFR WT and Kras G12S mutant, from Shanghai Cell Bank of Chinese Academy of Sciences) was cultured with 1×Ham'S F12K complete medium which was supplement with 10% FBS, 1% double-antibiotics and 2 mM glutamine.
as §3, with “The” for “Adherent cells were digested with 0.25% pancreatin-EDTA (Gibco). The”
as §4, §5
as §6, with “The concentration value of 50% inhibition of cell growth (GI50) was calculated.” left out

[16] = Table 13, 72 h, read-out: Range of GI50 H1975 (EGFR L858R/T790M)
[17] = Table 15, 1000 nM to 0.03 nM serial dilution, read-out: GI50 H1975 (EGFR L858R/T790M)
[18] = Table 13, 72 h, read-out: Range of GI50 PC-9 (EGFR dE746-A750)
[19] = Table 15, 1000 nM to 0.03 nM serial dilution, read-out: GI50 PC-9 (EGFR dE746-A750)
[20] = Table 13, 72 h, read-out: Range of GI50 A549 (EGFR WT)
[21] = Table 15, 1000 nM to 0.03 nM serial dilution, read-out: GI50 A549 (EGFR WT)
[22] = Table 13, 72 h, read-out: Range of GI50 N87 (HER2 Amp)
[23] = Table 16, 1000 nM to 0.03 nM serial dilution, read-out: GI50 N87 (HER2 amp)

Row | SMILES | GI50 [1, 16] [nM] | GI50 [1, 17] [nM] | GI50 [3, 18] [nM] | GI50 [3, 19] [nM] | GI50 [14] [nM] | GI50 [8, 20] [nM] | GI50 [8, 21] [nM] | GI50 [15] [nM] | GI50 [11, 22] [nM] | GI50 [11, 23] [nM] | further results
1 | C=CC(=O)Nc1cc(Nc2cc(-c3cn(C)c4ccccc34)ncn2)c(OC)cc1N1CCC(N2CCN(C)CC2)CC1 [Compound 176, N-(4-methoxyl-5-(6-(1-methyl-1H-indol-3-yl)-pyrimidin-4-ylamino)-2-(4-(4-methylpiperazin-1-yl)-piperidin-1-yl)-phenyl)-acrylamide] | – | – | – | – | – | – | – | – | – | – | GI50 ([1]; EGFR mutant cell line, range of GI50, read-out: GI50 H1975): 10 to 100 nM; GI50 [2]: < 10 nM; GI50 ([3]; EGFR mutant cell line, range of GI50, read-out: GI50 PC-9): < 10 nM; GI50 [4]: 10 to 100 nM; GI50 [5]: 100 to 1000 nM; GI50 [6]: 100 to 1000 nM; GI50 [7]: > 1000 nM; GI50 ([8]; EGFR wild type cell line, range of GI50, read-out: GI50 A549): > 1000 nM; GI50 [9]: > 1000 nM; GI50 [10]: 10 to 100 nM; GI50 ([11]; HER2 positive cell line, range of GI50, read-out: GI50 N87): 10 to 100 nM; inhibition in vivo at 25 mg/kg [12]: 98.6%; inhibition in vivo at 25 mg/kg [13]: 98.2%
2 | C=CC(=O)Nc1cc(Nc2nccc(-n3ccc4c(OC)cc(Br)cc43)n2)c(OC)cc1N(C)CCN(C)C [Compound 211, N-(5-(4-(4-methoxyl-6-bromo-1H-indol-1-yl)-pyrimidin-2-ylamino)-2-(2-(dimethylamino-ethyl)-methyl-amino)-4-methoxyl-phenyl)-acrylamide] | 10 to 100 | 19.6 | < 10 | 7.89 | 31.5 | > 1000 | > 1000 | > 1000 | < 10 | 6.76 | –
3 | C=CC(=O)Nc1cc(Nc2nccc(-n3ccc4c(OC)cc(F)cc43)n2)c(OC)cc1N(C)CCN(C)C [Compound 212, N-(5-(4-(4-methoxyl-6-fluoro-1H-indol-1-yl)-pyrimidin-2-ylamino)-2-(2-(dimethylamino-ethyl)-methyl-amino)-4-methoxyl-phenyl)-acrylamide] | < 10 | 8.56 | < 10 | 6.82 | 15.6 | > 1000 | > 1000 | > 1000 | < 10 | 2.67 | –
4 | C=CC(=O)Nc1cc(Nc2nccc(-n3ccc4c(OC)cc(Cl)cc43)n2)c(OC)cc1N(C)CCN(C)C [Compound 213] | < 10 | 9.8 | < 10 | 7.83 | 15.6 | > 1000 | > 1000 | > 1000 | < 10 | 1.95 | –
